We go through 25 compounds from US10988445B2 (AstraZeneca AB, priority 2015, dated 2021).

This test relates to human TH17 cells. As to the kind of experiment: Inhibition of IL-17 release from human TH17 cells. It is filed as cell-based. To be noted: Homo sapiens, 96 h, isolated human TH17 cells, 4 days culture, IL-17A by HTRF; read-out: pIC50 IL-17 release (converted). From the text:
Inhibition of IL-17 Release from Human TH17 Cells (IL-17 Release)
This test is designed to screen compounds for their inhibitory effect on the release of IL-17 from isolated and cultured human TH17 cells.
Peripheral blood mononuclear cells (PBMC) were isolated from heparin treated human whole blood fromhealthy donors by density gradient centrifugation. TH17 cells (CD4+CXCR3-CCR6+) were enriched using a human TH17 Cell Enrichment Kit (Stemcell Technologies) according to the manufacturer's protocol. […] On day 4 supernatants were collected and IL-17A was measured using a Human IL-17 HTRF Assay kit (Cisbio Bioassays) according to the manufacturer's protocol. […] Results
For orientation: In TR-FRET formats the signal depends on donor and acceptor labels being close together.
Take `CNS(=O)(=O)c1ccc2c(c1)CNC2C(=O)Nc1ccc(C(O)(C(F)(F)F)C(F)(F)F)cc1` (stereo not shown) [Example 300, N-[4-(1,1,1,3,3,3-hexafluoro-2-hydroxypropan-2-yl)phenyl]-5-(methylsulfamoyl)-2,3-dihydro-1H-isoindole-1-carboxamide]: the IC50 is 25.1 nM. As to `CNS(=O)(=O)c1ccc2c(c1)CN(C(=O)OC)C2C(=O)Nc1ccc(C(O)(C(F)(F)F)C(F)(F)F)cc1` (stereo not shown) [Example 304, Methyl 1-{[4-(1,1,1,3,3,3-hexafluoro-2-hydroxypropan-2-yl)phenyl]carbamoyl}-5-(methylsulfamoyl)-1,3-dihydro-2H-isoindole-2-carboxylate], the IC50 is 12.6 nM. Regarding `CCOC(=O)N1Cc2cc(S(=O)(=O)NC)ccc2C1C(=O)Nc1ccc(C(O)(C(F)(F)F)C(F)(F)F)cc1` (stereo not shown) [Example 305, Ethyl 1-{[4-(1,1,1,3,3,3-hexafluoro-2-hydroxypropan-2-yl)phenyl]carbamoyl}-5-(methylsulfamoyl)-1,3-dihydro-2H-isoindole-2-carboxylate], the IC50 was 10 nM. Turning to `CNS(=O)(=O)c1ccc2c(c1)CN(C(=O)C1(OC)CC1)C2C(=O)Nc1ccc(C(O)(C(F)(F)F)C(F)(F)F)cc1` (stereo not shown) [Example 306, N-[4-(1,1,1,3,3,3-Hexafluoro-2-hydroxypropan-2-yl)phenyl]-2-[(1-methoxycyclopropyl)carbonyl]-5-(methylsulfamoyl)-2,3-dihydro-1H-isoindole-1-carboxamide], the IC50 was 20 nM. Consider `CNS(=O)(=O)c1ccc2c(c1)CN(C(=O)COC)C2C(=O)Nc1ccc(C(O)(C(F)(F)F)C(F)(F)F)cc1` (stereo not shown) [Example 308, N-[4-(1,1,1,3,3,3-Hexafluoro-2-hydroxypropan-2-yl)phenyl]-2-(methoxyacetyl)-5-(methylsulfamoyl)-2,3-dihydro-1H-isoindole-1-carboxamide], for which the IC50 was 31.6 nM. For `CNS(=O)(=O)c1ccc2c(c1)CN(C(=O)[C@H]1CCCO1)C2C(=O)Nc1ccc(C(O)(C(F)(F)F)C(F)(F)F)cc1` (stereo partly drawn) [Example 310, N-[4-(1,1,1,3,3,3-Hexafluoro-2-hydroxypropan-2-yl)phenyl]-5-(methylsulfamoyl)-2-[(2R)-tetrahydrofuran-2-ylcarbonyl]-2,3-dihydro-1H-isoindole-1-carboxamide], the IC50 was 31.6 nM. Consider `CNS(=O)(=O)c1ccc2c(c1)CN(C(=O)[C@@H]1CCCO1)C2C(=O)Nc1ccc(C(O)(C(F)(F)F)C(F)(F)F)cc1` (stereo partly drawn) [Example 311, N-[4-(1,1,1,3,3,3-Hexafluoro-2-hydroxypropan-2-yl)phenyl]-5-(methylsulfamoyl)-2-[(2S)-tetrahydrofuran-2-ylcarbonyl]-2,3-dihydro-1H-isoindole-1-carboxamide], for which the IC50 is 31.6 nM. The result for `CCC(OC)C(=O)N1Cc2cc(S(=O)(=O)NC)ccc2C1C(=O)Nc1ccc(C(O)(C(F)(F)F)C(F)(F)F)cc1` (stereo not shown) [Example 312, N-[4-(1,1,1,3,3,3-Hexafluoro-2-hydroxypropan-2-yl)phenyl]-2-(2-methoxybutanoyl)-5-(methylsulfamoyl)-2,3-dihydro-1H-isoindole-1-carboxamide] reads 39.8 nM; that for `CNS(=O)(=O)c1ccc2c(c1)CN(C(=O)CO)C2C(=O)Nc1ccc(C(O)(C(F)(F)F)C(F)(F)F)cc1` (stereo not shown) [Example 313, N-[4-(1,1,1,3,3,3-Hexafluoro-2-hydroxypropan-2-yl)phenyl]-2-(hydroxyacetyl)-5-(methylsulfamoyl)-2,3-dihydro-1H-isoindole-1-carboxamide], 100 nM; that for `CNC(=O)N1Cc2cc(S(=O)(=O)NC)ccc2C1C(=O)Nc1ccc(C(O)(C(F)(F)F)C(F)(F)F)cc1` (stereo not shown) [Example 314], 63.1 nM. `CS(=O)(=O)c1ccc2c(c1)CN(C(=O)Cc1ccccc1)C2C(=O)Nc1ccc(C(O)(C(F)(F)F)C(F)(F)F)cc1` (stereo not shown) [Example 402, N-[4-(1,1,1,3,3,3-Hexafluoro-2-hydroxypropan-2-yl)phenyl]-5-(methylsulfonyl)-2-(phenylacetyl)-2,3-dihydro-1H-isoindole-1-carboxamide]: the IC50 is 12.6 nM.

As to `CC(CF)C(=O)N1Cc2cc(S(C)(=O)=O)ccc2C1C(=O)Nc1ccc(C(O)(C(F)(F)F)C(F)(F)F)cc1` (stereo not shown) [Example 408, 2-(3-Fluoro-2-methylpropanoyl)-N-[4-(1,1,1,3,3,3-hexafluoro-2-hydroxypropan-2-yl)phenyl]-5-(methylsulfonyl)-2,3-dihydro-1H-isoindole-1-carboxamide], the IC50 was 12.6 nM. For `CC(C)CC(=O)N1Cc2cc(S(C)(=O)=O)ccc2C1C(=O)Nc1ccc(C(O)(C(F)(F)F)C(F)(F)F)cc1` (stereo not shown) [Example 410, N-[4-(1,1,1,3,3,3-Hexafluoro-2-hydroxypropan-2-yl)phenyl]-2-(3-methylbutanoyl)-5-(methylsulfonyl)-2,3-dihydro-1H-isoindole-1-carboxamide], the IC50 is 20 nM.

As for `CS(=O)(=O)c1ccc2c(c1)CN(C(=O)CC1CC1)C2C(=O)Nc1ccc(C(O)(C(F)(F)F)C(F)(F)F)cc1` (stereo not shown) [Example 411, 2-(Cyclopropylacetyl)-N-[4-(1,1,1,3,3,3-hexafluoro-2-hydroxypropan-2-yl)phenyl]-5-(methylsulfonyl)-2,3-dihydro-1H-isoindole-1-carboxamide], the IC50 is 25.1 nM.

On to `CS(=O)(=O)c1ccc2c(c1)CN(C(=O)CC1(O)CC1)C2C(=O)Nc1ccc(C(O)(C(F)(F)F)C(F)(F)F)cc1` (stereo not shown) [Example 412, N-[4-(1,1,1,3,3,3-Hexafluoro-2-hydroxypropan-2-yl)phenyl]-2-[(1-hydroxycyclopropyl)acetyl]-5-(methylsulfonyl)-2,3-dihydro-1H-isoindole-1-carboxamide], for which the IC50 was 25.1 nM.

Regarding `C[C@H](F)CC(=O)N1Cc2cc(S(C)(=O)=O)ccc2C1C(=O)Nc1ccc(C(O)(C(F)(F)F)C(F)(F)F)cc1` (stereo partly drawn) [Example 413, 2-[(3S)-3-Fluorobutanoyl]-N-[4-(1,1,1,3,3,3-hexafluoro-2-hydroxypropan-2-yl)phenyl]-5-(methylsulfonyl)-2,3-dihydro-1H-isoindole-1-carboxamide], the IC50 was 31.6 nM. Consider `CS(=O)(=O)c1ccc2c(c1)CN(C(=O)CCF)C2C(=O)Nc1ccc(C(O)(C(F)(F)F)C(F)(F)F)cc1` (stereo not shown) [Example 415, 2-(3-Fluoropropanoyl)-N-[4-(1,1,1,3,3,3-hexafluoro-2-hydroxypropan-2-yl)phenyl]-5-(methylsulfonyl)-2,3-dihydro-1H-isoindole-1-carboxamide], for which the IC50 is 31.6 nM. The figure for `CCOC1(C(=O)N2Cc3cc(S(C)(=O)=O)ccc3C2C(=O)Nc2ccc(C(O)(C(F)(F)F)C(F)(F)F)cc2)CC1` (stereo not shown) [Example 416, 2-[(1-Ethoxycyclopropyl)carbonyl]-N-[4-(1,1,1,3,3,3-hexafluoro-2-hydroxypropan-2-yl)phenyl]-5-(methylsulfonyl)-2,3-dihydro-1H-isoindole-1-carboxamide] is 31.6 nM. The figure for `COC1(CC(=O)N2Cc3cc(S(C)(=O)=O)ccc3C2C(=O)Nc2ccc(C(O)(C(F)(F)F)C(F)(F)F)cc2)CC1` (stereo not shown) [Example 417, N-[4-(1,1,1,3,3,3-Hexafluoro-2-hydroxypropan-2-yl)phenyl]-2-[(1-methoxycyclopropyl)acetyl]-5-(methylsulfonyl)-2,3-dihydro-1H-isoindole-1-carboxamide] is 31.6 nM; for `C[C@@H](F)CC(=O)N1Cc2cc(S(C)(=O)=O)ccc2C1C(=O)Nc1ccc(C(O)(C(F)(F)F)C(F)(F)F)cc1` (stereo partly drawn) [Example 418, 2-[(3R)-3-Fluorobutanoyl]-N-[4-(1,1,1,3,3,3-hexafluoro-2-hydroxypropan-2-yl)phenyl]-5-(methylsulfonyl)-2,3-dihydro-1H-isoindole-1-carboxamide] it is 39.8 nM; for `COC(C)(C)C(=O)N1Cc2cc(S(C)(=O)=O)ccc2C1C(=O)Nc1ccc(C(O)(C(F)(F)F)C(F)(F)F)cc1` (stereo not shown) [Example 419, N-[4-(1,1,1,3,3,3-Hexafluoro-2-hydroxypropan-2-yl)phenyl]-2-(2-methoxy-2-methylpropanoyl)-5-(methylsulfonyl)-2,3-dihydro-1H-isoindole-1-carboxamide] it is 50.1 nM. For `CC(C)OC(=O)N1Cc2cc(S(C)(=O)=O)ccc2C1C(=O)Nc1ccc(C(O)(C(F)(F)F)C(F)(F)F)cc1` (stereo not shown) [Example 420, Propan-2-yl 1-{[4-(1,1,1,3,3,3-hexafluoro-2-hydroxypropan-2-yl)phenyl]carbamoyl}-5-(methylsulfonyl)-1,3-dihydro-2H-isoindole-2-carboxylate], the IC50 is 79.4 nM. Regarding `CC(C)(O)CC(=O)N1Cc2cc(S(C)(=O)=O)ccc2C1C(=O)Nc1ccc(C(O)(C(F)(F)F)C(F)(F)F)cc1` (stereo not shown) [Example 421, N-[4-(1,1,1,3,3,3-Hexafluoro-2-hydroxypropan-2-yl)phenyl]-2-(3-hydroxy-3-methylbutanoyl)-5-(methylsulfonyl)-2,3-dihydro-1H-isoindole-1-carboxamide], the IC50 is 100 nM. For `CC(CO)C(=O)N1Cc2cc(S(C)(=O)=O)ccc2C1C(=O)Nc1ccc(C(O)(C(F)(F)F)C(F)(F)F)cc1` (stereo not shown) [Example 425, N-[4-(1,1,1,3,3,3-Hexafluoro-2-hydroxypropan-2-yl)phenyl]-2-(3-hydroxy-2-methylpropanoyl)-5-(methylsulfonyl)-2,3-dihydro-1H-isoindole-1-carboxamide], the IC50 was 79.4 nM. In the case of `CS(=O)(=O)c1ccc2c(c1)CN(C(=O)CC1(C#N)CC1)C2C(=O)Nc1ccc(C(O)(C(F)(F)F)C(F)(F)F)cc1` (stereo not shown) [Example 427, 2-[(1-Cyanocyclopropyl)acetyl]-N-[4-(1,1,1,3,3,3-hexafluoro-2-hydroxypropan-2-yl)phenyl]-5-(methylsulfonyl)-2,3-dihydro-1H-isoindole-1-carboxamide], the IC50 is 100 nM.
